Patent US20240148675A1, “TOPICAL COMPOSITIONS AND METHODS FOR TREATMENT” (Atossa Therapeutics, Inc., priority 2017, published 2024)

How the values were obtained:
[1] = aqueous medium, 45° C., day 15, starting from 98%; cited from earlier work
[2] = Stability of endoxifen free base in polar organic solvents in the absence and presence of skin; assay type: physicochemical; details: for potency and stability in the solvents in the presence of skin: compared with potency in absence of skin after 2 days; for % Potency: relative to initiation of study
Procedure: (§1) HPLC-UV. Briefly, (E)- and (Z)-endoxifen were analyzed by High Performance Liquid Chromatography, HPLC (instrument: Agilent 1100) using a UV detector (Agilent). Chromatographic resolution was obtained using a Luna Phenyl Hexyl Column ([…]×150 mm) at a column temperature of 40° C. Samples were injected in an injection volume of 10 ul and run at a flow rate of 1.0 ml/min. The mobile phase system used consisted of: A) water with 10 mM ammonium formate (HCOONH4) with 0.03% formic acid and B) Methanol with 10 mM ammonium formate (HCOONH4).
The stability studies of endoxifen free base in various pure polar organic solvents/MPEs were performed as described below. Accelerated stability studies of (Z)-endoxifen free base in solvents/MPEs were performed over a course of 2 days at 45° C. in both the presence and the absence of human cadaver skin to assess the degree to which the (Z)-endoxifen conversion to (E)-endoxifen by isomerization and or chemical degradation of the endoxifen is accelerated upon contact with skin and skin components. (Z)-Endoxifen solutions at ˜80% of saturation concentrations were prepared in 1 ml batches in solvents as listed below in the Table 3. The potencies of (Z)-endoxifen and (E)-endoxifen were determined by HPLC-UV analysis as described above. Potency results are shown compared with potencies measured when the sample were stored at the initiation of stability study.

[3] = Solubility of (Z) and (E)-endoxifen in polar organic solvents (HPLC-UV); assay type: physicochemical
Procedure: (Z)-endoxifen free base was synthesized as described above in Example 1. (Z)-endoxifen was solubilized in various solvents as provided in Table 1, and tested for physical and chemical stability in solution. The solutions were prepared in ˜1 ml batches typically for solubility and stability testing. The mixture was stirred overnight on a rotisserie at room temperature. The next, […], the suspension was filtered using a syringe filter (0.2 um pore size GHP membrane). The filtrated solution was then analyzed for the concentration of (Z)-endoxifen and (E)-endoxifen as using a validated HPLC-UV method as described below.
as §1
UV detection of (E)-endoxifen and (Z)-endoxifen isomers was performed at 243 nm with a run time of 30 minutes. Retention times for (E)-endoxifen and (Z)-endoxifen were 15.14 m and 16.25 m respectively. […]

[4] = in Diethyl Sebacate, 45° C. + skin (human cadaver), 2 days
[5] = in Diethylene glycol monoethyl ether, 45° C. + skin (human cadaver), 2 days
[6] = in Dimethyl Isosorbide, 45° C. + skin (human cadaver), 2 days
[7] = in Dipropylene Glycol, 45° C. + skin (human cadaver), 2 days
[8] = in Isopropyl Myristate, 45° C. + skin (human cadaver), 2 days
[9] = in PEG 300, 45° C. + skin (human cadaver), 2 days

| SMILES | (Z)-endoxifen remaining after degradation [1] | potency and stability in the solvents in the presence of skin ([2]; 45° C.) | % Potency [2, 4] | % Potency [2, 5] | % Potency ([2]; in Diisopropyl Adipate, 45° C. + skin (human cadaver), 2 days) | % Potency [2, 6] | % Potency [2, 7] | % Potency [2, 8] | % Potency [2, 9] | stability of (Z)-endoxifen in polar organic solvents ([3]; polar organic solvents of Table 1) | stability of dissolved endoxifen ([2]; dissolved in dimethyl isosorbide and isopropyl myristate, 2 days, 45° C.) | solubility in polar organic solvents/MPEs ([3]; DMSO, ethanol, diethylene monoethyl ether, and oleic acid) |
| --- | --- | --- | --- | --- | --- | --- | --- | --- | --- | --- | --- | --- |
| CC/C(=C(\c1ccc(O)cc1)c1ccc(OCCNC)cc1)c1ccccc1.Cl [(Z)-endoxifen HCl] | 75% | – | – | – | – | – | – | – | – | – | – | – |
| CC/C(=C(\c1ccc(O)cc1)c1ccc(OCCNC)cc1)c1ccccc1 [(Z)-endoxifen free base, (Z)-4-(1-(4-(2-(methylamino)ethoxy)phenyl)-2-phenylbut-1-enyl)phenol] | – | maintained potency and stability | 94% | 98% | 99% | 17% | 94% | 63% | 92% | surprisingly stable | – | – |
| CC/C(=C(/c1ccc(O)cc1)c1ccc(OCCNC)cc1)c1ccccc1 [(E)-endoxifen free base] | – | maintained potency and stability | 99% | 98% | – | 16% | 95% | 68% | 92% | – | – | – |
| CC/C(=C(\c1ccc(O)cc1)c1ccc(OCCNC)cc1)c1ccccc1 [Total Endoxifen free base, (E/Z)-4-[1-[4-[2-(Methylamino)ethoxy]phenyl]-2-phenyl-1-buten-1-yl]-phenol] | – | – | – | – | – | – | – | – | – | – | poor stability | significantly soluble |
